Here are results for 13 compounds from PubChem BioAssay (NCI).

Among the test systems are SNB-78 CNS; LXFL 529 NSCLC; SR leukemia; XF 498 CNS; DMS 273 small cell lung; SF-539 CNS; HS 578T breast; MCF7 breast; MDA-MB-231 breast; NCI/ADR-RES ovarian; NCI-H460 lung; BT-549 breast.
Common to all, as to assay: growth of human tumour cells (NCI), 48 h

“And” between values parts separate entries of the source, which are not always exact repeats. Equal entries are not always repeated.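 Protocol summary: plate cells (96-well), add compound at 5 concentrations, incubate 48 h, interpolate endpoints linearly. At the GI50, growth is halved. TGI is the concentration that stops growth completely.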

For `CC(=O)N1CC(=O)NC1=S`, the TGI with SNB-78 CNS, in the experiment on LXFL 529 NSCLC, in the experiment on SR leukemia, in the experiment with XF 498 CNS, in the experiment with DMS 273 small cell lung and in the experiment with SF-539 CNS was > 100 µM each time.
On to `CSc1ccc(-c2cc(-c3nc4ccccc4[nH]3)nc(N)c2C#N)cc1`, for which the TGI is > 100 µM in the experiment with HS 578T breast; 54.6 µM in the experiment with MCF7 breast; 65.8 µM with SR leukemia; 36.1 µM in the experiment on MDA-MB-231 breast; > 100 µM in the experiment with NCI/ADR-RES ovarian; 86 µM in the experiment on SF-539 CNS. The TGI in the experiment on NCI-H460 lung is 72.5 µM; with BT-549 breast, 59.6 µM.
As to `Cc1c2cc[n+](C)cc2c(C)c2c1[nH]c1ccc(Cl)cc12`, the TGI is 2.56 µM with SNB-78 CNS; 0.743 µM in the experiment on HS 578T breast; 2.59 µM in the experiment with LXFL 529 NSCLC; 15.9 µM in the experiment on MCF7 breast; > 78.1 µM with SR leukemia; > 47.5 µM with MDA-MB-231 breast. Moreover, the TGI in the experiment on DMS 273 small cell lung is 35.7 µM; in the experiment with NCI/ADR-RES ovarian, > 100 µM; in the experiment with SF-539 CNS, 2.32 µM; with NCI-H460 lung it was 54 µM; with BT-549 breast it was 4.16 µM.
With `N#CCCOCN(CO)c1nc(N(CO)COCCC#N)nc(N(CO)COCCC#N)n1`, the TGI with SNB-78 CNS was > 100 µM; in the experiment with LXFL 529 NSCLC, 42.5 µM; in the experiment on SR leukemia, 41.7 µM; in the experiment with XF 498 CNS, 31.5 µM; with DMS 273 small cell lung, 32.8 µM; in the experiment with SF-539 CNS, 8.63 µM. Besides, in the experiment on NCI-H460 lung, the TGI was determined as 81.3 µM.
In the case of `C=Cc1cc(OC)c2c(c1)c(=O)oc1c2cc(OC)c2c(O)ccc(C3OC(C)C(O)C(C)(O)C3O)c21` (configuration not stated), the TGI in the experiment on HS 578T breast is 0.00683 µM; in the experiment on MCF7 breast, 0.36 µM; in the experiment on SR leukemia, 0.000187 µM; with XF 498 CNS, 0.0373 µM; in the experiment on DMS 273 small cell lung it was 0.139 µM; in the experiment on NCI-H460 lung it was 0.00652 µM and 0.0584 µM. The compound further showed a TGI in the experiment with BT-549 breast of 0.00758 µM. Moreover, the GI50 in the experiment on MCF7 breast was 0.0358 nM; with NCI/ADR-RES ovarian, 0.659 nM; in the experiment on SF-539 CNS it was 0.153 nM; in the experiment on NCI-H460 lung, 0.484 nM.
In the case of `CN=C(N)/N=C(\N)Nc1cc2ccccc2c2ccccc12`, the TGI with HS 578T breast is 42.3 µM; with MCF7 breast it was 26.1 µM; with SR leukemia, 47.8 µM; with MDA-MB-231 breast, 26.2 µM; in the experiment on NCI/ADR-RES ovarian it was 49.9 µM; with SF-539 CNS, 29.4 µM. The TGI with NCI-H460 lung is 24.4 µM; in the experiment with BT-549 breast, 29.3 µM.
`CC(C)(O)CO/N=C1\C(c2c(O)[nH]c3ccccc23)=Nc2ccccc21`: the TGI is > 100 µM with HS 578T breast; 7.16 µM with MCF7 breast; > 100 µM in the experiment with SR leukemia; > 75.7 µM in the experiment on MDA-MB-231 breast; > 64.8 µM in the experiment on NCI/ADR-RES ovarian; 10.2 µM in the experiment on SF-539 CNS. Further, the TGI came out at 9.71 µM in the experiment with NCI-H460 lung and 28.6 µM in the experiment on BT-549 breast.
On to `Cc1c(NC(=O)c2cc([N+](=O)[O-])cc([N+](=O)[O-])c2)c(=O)n(-c2ccccc2)n1C`, for which the TGI with HS 578T breast, in the experiment with MCF7 breast, in the experiment on SR leukemia, with MDA-MB-231 breast, in the experiment with NCI/ADR-RES ovarian and in the experiment with SF-539 CNS was > 100 µM in each case. Further, the TGI in the experiment with NCI-H460 lung and with BT-549 breast was > 100 µM each time.
Turning to `NC(=O)Nc1ccc(C(=O)NCCCNC(=O)c2ccc(NC(N)=O)cc2)cc1`, the TGI with HS 578T breast, in the experiment on MCF7 breast, in the experiment on SR leukemia, in the experiment with NCI/ADR-RES ovarian, in the experiment on SF-539 CNS and in the experiment with NCI-H460 lung was > 100 µM throughout. Further, the TGI in the experiment with BT-549 breast is > 100 µM.
For the compound `COc1c(O)c(O)c2c(c1O)C(=O)c1cc(C)cc(O)c1C2=O`, the TGI was 78.9 µM in the experiment on HS 578T breast; > 100 µM with MCF7 breast; > 100 µM in the experiment with SR leukemia; 42 µM in the experiment with MDA-MB-231 breast; 47.3 µM in the experiment with NCI/ADR-RES ovarian; > 100 µM with SF-539 CNS. For the same compound, the TGI is > 78 µM in the experiment on NCI-H460 lung and > 100 µM in the experiment on BT-549 breast.
On to `Cc1ccc([N+](=O)[O-])cc1S(=O)(=O)Nc1ccc(C2=NN(C(=O)c3ccccc3)C(c3cccs3)C2)cc1` (configuration not stated), for which the TGI was > 100 µM in the experiment on HS 578T breast; > 100 µM in the experiment on MCF7 breast; > 100 µM with SR leukemia; 44 µM with MDA-MB-231 breast; > 100 µM in the experiment on NCI/ADR-RES ovarian; 63.9 µM in the experiment on SF-539 CNS. For the same compound, in the experiment on BT-549 breast, the TGI is > 100 µM.
As to `COc1ccccc1/C=C/c1c(N)ncnc1Nc1cccc(Cl)c1`, the TGI with HS 578T breast is 44 µM; in the experiment with MCF7 breast, > 100 µM; in the experiment with SR leukemia, > 100 µM; in the experiment on MDA-MB-231 breast, 42.5 µM; with SF-539 CNS it was 35.6 µM; in the experiment with NCI-H460 lung, 57.1 µM. Besides, the TGI in the experiment on BT-549 breast is 35.7 µM.
With `Cc1ccc2ccc3ccc(C)nc3c2n1`, the TGI in the experiment on SNB-78 CNS is > 100 µM; in the experiment with HS 578T breast, > 100 µM; in the experiment with LXFL 529 NSCLC, > 100 µM; in the experiment with MCF7 breast, 0.93 µM; with SR leukemia, > 100 µM; in the experiment on MDA-MB-231 breast it was > 100 µM. Further, the TGI in the experiment on DMS 273 small cell lung, with NCI/ADR-RES ovarian, in the experiment with SF-539 CNS, with NCI-H460 lung and in the experiment with BT-549 breast was > 100 µM in each case.
